Data taken from article PMC4457840, “Differential Inhibition of Signal Peptide Peptidase Family Members by Established γ-Secretase Inhibitors” (PLoS ONE, 2015).
Entries after “also recorded” stand apart in the source; their conditions may differ. Where two headings read alike, the source gives them in different places. Numbered stars: 1 amine (or outer) side, 2 acyl side, 3 side chain; on linkers, the order of the positions; unused ones are H or OH. Square brackets hold non-standard residues; d marks the D form. Peptide text beside a SMILES is read from it. * marks the point of attachment. X1 = CC(N[*:1])C(=O)C(F)(F)C(=O)[*:2]; Boc = CC(C)(C)OC(=O)*

What was measured:
SPPL2a [1] = biological target: T1, SPPL2a (Homo sapiens, UniProt Q8TCT8); assay: FBA/SPPL2a co-transfected HEK 293T cell cleavage assay (Aβ ELISA, Western blot); assay type: cell-based; settings: for inhibition of xAβ1-25/K16A secretion (in words) / inhibition at 25 µM: 25 μM; for IC50: HEK cells, 24 h, xAβ1-25/K16A by Aβ ELISA, mean ± standard error, read-out: IC50 on FBA/SPPL co-transfected cells; for inhibition at 25 µM: HEK-293T, DMSO = 100%, read-out: inhibition of the SPP/SPPLs; for rank order of inhibition: number in parenthesis in Table 3
T1 construct: expressed in transfected cells; host or cells: HEK 293T
T1 sequence (Q8TCT8 26-520): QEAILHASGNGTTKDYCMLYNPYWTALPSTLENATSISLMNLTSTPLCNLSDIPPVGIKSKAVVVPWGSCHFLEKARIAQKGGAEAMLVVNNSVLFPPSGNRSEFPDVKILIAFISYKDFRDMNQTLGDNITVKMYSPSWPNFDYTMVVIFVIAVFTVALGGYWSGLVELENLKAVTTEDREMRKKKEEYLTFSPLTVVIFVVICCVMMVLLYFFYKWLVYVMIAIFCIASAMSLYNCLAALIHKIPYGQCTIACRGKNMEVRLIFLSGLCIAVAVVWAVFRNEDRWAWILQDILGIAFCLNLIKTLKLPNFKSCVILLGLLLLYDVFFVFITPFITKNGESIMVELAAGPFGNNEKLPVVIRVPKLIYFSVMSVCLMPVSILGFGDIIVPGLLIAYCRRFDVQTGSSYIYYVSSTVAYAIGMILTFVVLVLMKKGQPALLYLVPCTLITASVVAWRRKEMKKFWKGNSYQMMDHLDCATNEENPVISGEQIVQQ
Description: (§1) Expression constructs in pcDNA6 for COOH-terminal FLAG (DYKDDDDK) and strep (WSHPQFEK) tagged SPPL2a, SPPL2b, hSPP and pSPP were generated as previously described. Untagged versions of all enzymes were also made and ligated into the pAG3 vector. Substrates (Fig 1) were designed as follows: FLAG-BRI2_1-81- Aβ1-25/K16A (FBA). The K16A mutation was incorporated to prevent potential α-secretase cleavage that would preclude ELISA based detection of the released COOH-terminal fragment. The substrate DNA was cloned into the expression vector pcDNA6. Constructs were confirmed by DNA sequencing. The overexpression of substrates was performed by transiently transfecting human embryonic kidney (HEK 293T) cells with or without SPP/SPPL vectors. Cells were grown in DMEM media supplemented with Hyclone 10% fetal bovine serum (GE, Logan, Utah, USA) and 1% penicillin/streptomycin (Life Technologies, Grand Island, NY, USA). Briefly, 2.7 μg DNA was applied to a 75% confluent 6 well plate (Corning, Tewksbury, MA, USA) using the polycation polyethylenimine (PEI) transfection method. Inhibitor testing experiments were conducted in 48 well plates with appropriately adjusted amounts of DNA and PEI and incubated 12–16 hours, after which the growth medium was replaced with fresh medium. DMSO (Sigma, St. Louis, MO, USA) and GSIs were added at the appropriate concentration. The GSIs, L685,458 and Compound W were purchased from Tocris (Tocris, Bristol, UK). (Z-LL)2 ketone, Compound E, DAPT, GSI II were purchased from Calbiochem (Merck Millipore, Billerica, MA, USA). LY-411,575 was synthesized by A. Fauq at the Mayo Clinic Chemical Core. Twenty-four hours later, the medium was collected for assay by ELISA and MS. A20 cells (TIB-208) (ATCC, Manassas, VA, USA) were cultured in RPMI-1640 medium (ATCC) supplied with 10% fetal bovine serum, 1% penicillin/streptomycin and 0.05 mM 2-mercaptoethanol (Life Technologies). At the density of 5x10^5 cells/ml, A20 cells were spun down at 1000 g for 2 min and resuspended in fresh medium supplied with DMSO or GSIs and incubated for 16 hr.
(§2) Sandwich ELISAs used for Aβ detection were performed as previously described. Briefly, Aβ and Aβ adducts with substrate TMD in conditioned media was captured with Ab5 antibody (human Aβ1–16 specific) and detected with horseradish peroxidase mAb 4G8 (Covance, Princeton, NJ, USA). Synthetic Aβ1–40 was used as standard. All ELISAs were developed with TMB substrate (KPL, Gaithersburg, Maryland, USA). Bis-Tris precast gels (Biorad, Hercules, CA, USA) were used for all SDS-PAGE. Monoclonal anti-FLAG M2 antibody (Sigma) and Aβ1–16 antibody 6E10 (Covance) were used for Western blotting. Antisera against SPPL2a, SPPL2b, hSPP and pSPP were generated as previously described and were used at dilution of 1:1000 for Western blotting. Anti-CD74 In-1 antibody (BD Bioscience, San Jose, CA, USA) was used for A20 cell lysate Western blotting at dilution of 1:1000.

pSPP = pSPP (Plasmodium falciparum, UniProt Q8IKQ9); assay: FBA/pSPP co-transfected HEK 293T cell cleavage assay (Aβ ELISA, Western blot, IP/MS); assay type: cell-based, human; settings: for inhibition at 25 µM: read-out: inhibition of the SPP/SPPLs; for rank order of inhibition: number in parenthesis in Table 3
Description: as §1, §2
Immunoprecipitation and mass spectrometry of xAβ1–25 in conditioned media were performed as previously described. In this study, 10 ml conditioned media were used for each experiment. ICDs were immunoprecipitated with anti-FLAG M2 magnetic beads. Cells from 10 cm dished treated with DMSO or 20 μM LY-411,575 were used for each test.

SPPL2a [2] = tested on: T2, SPPL2a; assay: Endogenous CD74 NTF P8 turnover in non-overexpressing A20 cells (Western blot, In-1 antibody); assay type: cell-based, mouse; settings: for stabilization of the CD74 8 kDa NTF P8: 25 μM, 16 hr; for dose response of P8 fragment stabilization (in words): different doses; for lowest concentration inhibiting P8 turnover: dose response
T2 construct: endogenous SPPL2a cleavage of CD74 in a murine B-Cell line; host or cells: A20 mouse B lymphocyte cells
Experimental: as §1, with “Untagged” for “Expression constructs in pcDNA6 for COOH-terminal FLAG (DYKDDDDK) and strep (WSHPQFEK) tagged SPPL2a, SPPL2b, hSPP and pSPP were generated as previously described. Untagged”
as §2

Sequence of pSPP (Q8IKQ9 entry or part of it): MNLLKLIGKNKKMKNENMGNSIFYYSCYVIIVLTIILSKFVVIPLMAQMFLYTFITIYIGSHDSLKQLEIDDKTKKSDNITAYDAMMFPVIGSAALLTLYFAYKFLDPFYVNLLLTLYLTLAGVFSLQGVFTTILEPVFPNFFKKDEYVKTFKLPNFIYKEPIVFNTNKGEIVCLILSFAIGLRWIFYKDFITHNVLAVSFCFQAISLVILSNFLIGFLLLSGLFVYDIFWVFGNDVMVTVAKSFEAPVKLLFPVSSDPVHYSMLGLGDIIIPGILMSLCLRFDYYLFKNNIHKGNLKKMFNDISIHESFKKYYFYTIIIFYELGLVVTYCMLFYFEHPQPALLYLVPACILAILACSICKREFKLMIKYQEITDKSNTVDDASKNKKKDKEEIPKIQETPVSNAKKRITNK

Row | SMILES | FBA cleavage by co-transfected SPPL (in words) (SPPL2a [1]; 10 μM, Aβ ELISA, Fig 1D) | generation of the SPP/SPPL dependent 10 kDa ICD (SPPL2a [1]; 10 μM, Western blot anti-FLAG M2) | inhibition of xAβ1-25/K16A secretion (in words) (SPPL2a [1]; ELISA) | IC50 (SPPL2a [1]) | inhibition at 25 µM (SPPL2a [1]; ELISA) | rank order of inhibition (SPPL2a [1]) | IC50 (pSPP) | inhibition at 10 µM (pSPP; HEK-293T, pSPP, 10 μM, overnight, Aβ ELISA) | inhibition at 25 µM (pSPP; HEK-293T, pSPP, 25 μM, ELISA, DMSO = 100%) | FBA cleavage by co-transfected SPPL (in words) (pSPP; pSPP, 10 μM, Aβ ELISA, Fig 1D) | generation of the SPP/SPPL dependent 10 kDa ICD (pSPP; pSPP, 10 μM, Western blot anti-FLAG M2) | inhibition of xAβ1-25/K16A secretion (in words) (pSPP; pSPP, 25 μM, ELISA) | rank order of inhibition (pSPP; pSPP) | stabilization of the CD74 8 kDa NTF P8 (SPPL2a [2]) | dose response of P8 fragment stabilization (in words) (SPPL2a [2]) | lowest concentration inhibiting P8 turnover (SPPL2a [2]) | inhibition of SPPL2a in dose response (SPPL2a [1]; at the doses tested, ELISA) | inhibition at 25 µM (pSPP; HEK-293T) | cleavage products in conditioned media by IP/MS (pSPP; pSPP, 20 μM)
1 | CC(C)C[C@H](NC(=O)OCc1ccccc1)C(=O)N[C@@H](CC(C)C)C(=O)NCC(=O)CNC(=O)[C@H](CC(C)C)NC(=O)[C@H](CC(C)C)NC(=O)OCc1ccccc1 [(Z-LL)2 ketone] | largely inhibited | significantly reduced | largely inhibited | 177 ± 99 nM | > 90% | 2 | 472 ± 114 nM | > 75% | > 90% | largely inhibited | significantly reduced | largely inhibited | 3 | greatly stabilized | stabilized the P8 fragment in a dose dependent manner | 40 nM | – | – | –
2 | C[C@H](NC(=O)Cc1cc(F)cc(F)c1)C(=O)N[C@H]1N=C(c2ccccc2)c2ccccc2N(C)C1=O [Compound E] | – | – | – | – | – | – | – | – | – | – | – | did not show inhibition | – | did not show significant effects | – | – | < 50% | – | –
3 | C[C@H](NC(=O)Cc1cc(F)cc(F)c1)C(=O)NC(C(=O)OC(C)(C)C)c1ccccc1 (stereo partly shown) [DAPT] | – | – | does not inhibit | – | – | – | – | – | – | – | – | does not inhibit | – | no inhibition | – | – | – | – | –
4 | CC[C@H](C)[C@H](NC(=O)[C@@H](NC(=O)OC(C)(C)C)C(C)C)C(=O)NC(C)C(=O)C(F)(F)C(=O)N[C@H](C(=O)N[C@H](C(=O)OC)[C@@H](C)CC)C(C)C (stereo partly shown) [GSI II] (Boc-VI[X1]VI-OMe) | – | – | efficiently inhibited; also recorded: largely inhibited | 8800 ± 94 nM | – | 4 | 427 ± 100 nM | – | – | – | – | efficiently inhibited; also recorded: largely inhibited | 2 | greatly stabilized | stabilized the P8 fragment in a dose dependent manner | 40 nM | – | – | –
5 | C[C@H](NC(=O)[C@@H](O)c1cc(F)cc(F)c1)C(=O)N[C@@H]1C(=O)N(C)c2ccccc2-c2ccccc21 [LY-411,575] | – | – | largely inhibited | 51 ± 79 nM | > 90% | 1 | 3480 ± 90 nM | – | – | – | – | largely inhibited | 4 | greatly stabilized | stabilized the P8 fragment in a dose dependent manner | 40 nM | – | > 90% | No major cleavage product was detected
